# Assay results as given in ChEMBL document CHEMBL5543111, “Uncovering PROTAC Sensitivity and Efficacy by Multidimensional Proteome Profiling: A Case for STAT3” (J Med Chem, 2024).
# The source made the active and inactive calls. The rule behind the calls is not given here.
# Tests used:
# [1] = test system: SUP-M2; assay: Downregulation of NOP53 expression in human SUPM2 at 5 to 10 uM measured after 24 hrs; format: functional, cell-based; details: dose 5-10 µM
# [2] = test system: Mus musculus; assay: In vivo PROTAC activity at human Pfeiffer cells xenografted in CB-17/SCID mouse model bearing late stage of TPPRC assessed as degradation of STAT3 at administered as IV dose; format: functional, organism-based; details: dose 25-50 mg/kg
# [3] = test system: Pfeiffer; assay: Downregulation of STAT1 expression in patient derived STAT1 high expressing human Pfeiffer cell organoids at 2 uM by Western blot analysis; format: functional, cell-based
# [4] = test system: MOLM-16; assay: Downregulation of NOP53 expression in human MOLM16 at 5 to 10 uM measured after 24 hrs; format: functional, cell-based; details: dose 5-10 µM
# [5] = test system: Pfeiffer; assay: Antitumor activity against human Pfeiffer cells xenografted in CB-17/SCID mouse model bearing late stage of TPPRC assessed as inhibition of tumor growth at 25 to 50 mg/kg, iv measured upto 21 days; format: functional, organism-based; details: dose 25-50 mg/kg, time <= 21.0 day
# [6] = biological target: T1, Protein cereblon/Signal transducer and activator of transcription 3 (Homo sapiens) (UniProt P40763+Q96SW2); assay: PROTAC activity at CRBN/STAT3 in human MOLM16 cells assessed as induction of STAT3 degradation at 5 uM measured after 3 hrs; format: cell-based
# T1 sequence (P40763 2-770 limits assumed): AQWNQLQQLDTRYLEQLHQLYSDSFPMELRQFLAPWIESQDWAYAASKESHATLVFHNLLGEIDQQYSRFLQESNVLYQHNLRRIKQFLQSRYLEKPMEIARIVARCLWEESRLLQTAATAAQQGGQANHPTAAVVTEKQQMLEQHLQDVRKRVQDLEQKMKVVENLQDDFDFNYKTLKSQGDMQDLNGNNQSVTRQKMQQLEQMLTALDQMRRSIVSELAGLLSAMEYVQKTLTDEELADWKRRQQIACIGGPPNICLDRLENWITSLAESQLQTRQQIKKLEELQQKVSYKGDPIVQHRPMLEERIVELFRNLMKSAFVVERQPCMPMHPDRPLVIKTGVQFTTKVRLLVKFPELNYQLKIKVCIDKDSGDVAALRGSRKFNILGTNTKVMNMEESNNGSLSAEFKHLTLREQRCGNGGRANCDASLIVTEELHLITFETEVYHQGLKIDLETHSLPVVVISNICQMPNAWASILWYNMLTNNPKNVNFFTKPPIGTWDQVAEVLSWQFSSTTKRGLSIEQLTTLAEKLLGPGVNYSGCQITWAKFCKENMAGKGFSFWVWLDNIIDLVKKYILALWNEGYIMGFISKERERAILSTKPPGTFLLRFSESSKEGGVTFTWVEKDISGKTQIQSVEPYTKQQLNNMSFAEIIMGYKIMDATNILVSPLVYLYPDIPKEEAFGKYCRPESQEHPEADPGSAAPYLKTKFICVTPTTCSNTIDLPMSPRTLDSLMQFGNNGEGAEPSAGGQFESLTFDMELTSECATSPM
# T1 sequence (Q96SW2 whole entry partner): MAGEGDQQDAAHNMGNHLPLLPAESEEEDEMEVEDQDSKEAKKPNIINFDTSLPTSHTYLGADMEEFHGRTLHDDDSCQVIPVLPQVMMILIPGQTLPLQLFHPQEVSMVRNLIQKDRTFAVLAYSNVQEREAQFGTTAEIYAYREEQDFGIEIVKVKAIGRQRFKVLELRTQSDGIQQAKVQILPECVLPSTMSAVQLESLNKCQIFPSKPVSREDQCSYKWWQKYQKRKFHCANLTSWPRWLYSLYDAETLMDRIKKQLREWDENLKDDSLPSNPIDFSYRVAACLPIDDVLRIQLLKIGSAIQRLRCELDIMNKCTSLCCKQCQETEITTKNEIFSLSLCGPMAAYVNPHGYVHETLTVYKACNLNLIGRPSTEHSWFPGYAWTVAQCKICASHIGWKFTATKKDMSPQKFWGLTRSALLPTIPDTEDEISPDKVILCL
# [7] = biological target: T2, Protein cereblon/Signal transducer and activator of transcription 6 (Homo sapiens) (UniProt P42226+Q96SW2); assay: PROTAC activity at CRBN/STAT6 in human DB cells assessed as induction of STAT6 degradation at 5 to 10 uM measured after 24 hrs; format: cell-based; details: dose 5-10 µM
# T2 sequence (P42226 2-847 limits assumed): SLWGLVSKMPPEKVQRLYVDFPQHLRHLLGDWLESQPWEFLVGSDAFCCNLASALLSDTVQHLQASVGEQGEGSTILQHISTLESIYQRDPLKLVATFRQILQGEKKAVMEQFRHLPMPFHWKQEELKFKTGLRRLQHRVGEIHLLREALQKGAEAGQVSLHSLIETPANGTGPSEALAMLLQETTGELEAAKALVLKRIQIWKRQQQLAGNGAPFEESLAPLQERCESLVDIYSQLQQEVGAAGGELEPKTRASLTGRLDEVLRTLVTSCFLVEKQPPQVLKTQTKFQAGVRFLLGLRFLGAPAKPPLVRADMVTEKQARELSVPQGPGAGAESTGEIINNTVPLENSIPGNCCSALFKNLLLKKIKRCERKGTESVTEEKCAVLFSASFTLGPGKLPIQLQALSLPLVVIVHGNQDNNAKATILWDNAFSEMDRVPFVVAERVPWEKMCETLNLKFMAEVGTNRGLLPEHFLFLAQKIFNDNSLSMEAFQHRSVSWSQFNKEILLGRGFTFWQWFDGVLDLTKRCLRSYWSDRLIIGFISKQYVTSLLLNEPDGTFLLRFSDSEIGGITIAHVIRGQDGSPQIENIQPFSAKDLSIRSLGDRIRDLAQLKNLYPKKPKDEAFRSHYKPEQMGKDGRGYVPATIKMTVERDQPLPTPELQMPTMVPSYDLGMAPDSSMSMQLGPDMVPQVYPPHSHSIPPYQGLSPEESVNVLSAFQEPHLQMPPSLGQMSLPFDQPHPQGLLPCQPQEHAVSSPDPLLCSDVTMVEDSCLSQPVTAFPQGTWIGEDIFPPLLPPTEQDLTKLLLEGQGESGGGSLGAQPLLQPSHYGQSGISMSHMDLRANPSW
# T2 sequence (Q96SW2 whole entry partner): as the sequence (Q96SW2 whole entry partner) above
# [8] = biological target: T3, Protein cereblon/Signal transducer and activator of transcription 5A (Homo sapiens) (UniProt P42229+Q96SW2); assay: PROTAC activity at CRBN/STAT5A in human KARPAS-299 cells assessed as induction of STAT5A degradation at 5 to 10 uM measured after 24 hrs; format: cell-based; details: dose 5-10 µM
# T3 sequence (P42229 whole entry, looked up): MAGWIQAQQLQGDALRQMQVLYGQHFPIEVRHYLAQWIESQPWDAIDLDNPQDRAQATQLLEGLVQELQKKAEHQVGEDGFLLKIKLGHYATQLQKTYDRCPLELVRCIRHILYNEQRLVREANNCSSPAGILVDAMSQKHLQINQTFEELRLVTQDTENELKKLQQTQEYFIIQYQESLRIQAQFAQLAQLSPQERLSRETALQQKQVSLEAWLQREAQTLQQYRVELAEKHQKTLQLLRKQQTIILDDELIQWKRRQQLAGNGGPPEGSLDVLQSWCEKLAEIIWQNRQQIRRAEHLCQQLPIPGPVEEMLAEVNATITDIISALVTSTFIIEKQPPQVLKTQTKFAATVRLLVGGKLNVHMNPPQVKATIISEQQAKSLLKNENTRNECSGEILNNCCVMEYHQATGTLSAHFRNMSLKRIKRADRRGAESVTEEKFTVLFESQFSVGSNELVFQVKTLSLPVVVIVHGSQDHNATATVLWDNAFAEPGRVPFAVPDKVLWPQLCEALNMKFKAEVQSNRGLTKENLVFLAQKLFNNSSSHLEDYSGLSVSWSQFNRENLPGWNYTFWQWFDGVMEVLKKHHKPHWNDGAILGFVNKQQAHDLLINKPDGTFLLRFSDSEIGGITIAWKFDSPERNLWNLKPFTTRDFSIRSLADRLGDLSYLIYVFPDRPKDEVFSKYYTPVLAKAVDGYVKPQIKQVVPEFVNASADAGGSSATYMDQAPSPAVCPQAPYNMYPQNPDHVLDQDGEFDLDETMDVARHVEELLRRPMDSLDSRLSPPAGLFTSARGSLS
# T3 sequence (Q96SW2 whole entry, looked up): as the sequence (Q96SW2 whole entry partner) above
# [9] = biological target: T1, Protein cereblon/Signal transducer and activator of transcription 3 (Homo sapiens); assay: PROTAC activity at CRBN/STAT3 in human DB cells assessed as induction of STAT3 degradation at 5 to 10 uM measured after 24 hrs; format: cell-based; details: dose 5-10 µM
# [10] = test system: Pfeiffer; assay: Downregulation of STAT3 expression in patient derived STAT3 low expressing human Pfeiffer cell organoids at 2 uM by Western blot analysis; format: functional, cell-based
# [11] = biological target: T1, Protein cereblon/Signal transducer and activator of transcription 3 (Homo sapiens); assay: PROTAC activity at CRBN/STAT3 in human SUPM2 cells assessed as induction of STAT3 degradation at 5 uM measured after 3 hrs; format: cell-based
# [12] = biological target: T4, Protein cereblon/Signal transducer and activator of transcription 5B (Homo sapiens) (UniProt P51692+Q96SW2); assay: PROTAC activity at CRBN/STAT5B in human KARPAS-299 cells assessed as induction of STAT5B degradation at 5 to 10 uM measured after 24 hrs; format: cell-based; details: dose 5-10 µM
# T4 sequence (P51692 whole entry, looked up): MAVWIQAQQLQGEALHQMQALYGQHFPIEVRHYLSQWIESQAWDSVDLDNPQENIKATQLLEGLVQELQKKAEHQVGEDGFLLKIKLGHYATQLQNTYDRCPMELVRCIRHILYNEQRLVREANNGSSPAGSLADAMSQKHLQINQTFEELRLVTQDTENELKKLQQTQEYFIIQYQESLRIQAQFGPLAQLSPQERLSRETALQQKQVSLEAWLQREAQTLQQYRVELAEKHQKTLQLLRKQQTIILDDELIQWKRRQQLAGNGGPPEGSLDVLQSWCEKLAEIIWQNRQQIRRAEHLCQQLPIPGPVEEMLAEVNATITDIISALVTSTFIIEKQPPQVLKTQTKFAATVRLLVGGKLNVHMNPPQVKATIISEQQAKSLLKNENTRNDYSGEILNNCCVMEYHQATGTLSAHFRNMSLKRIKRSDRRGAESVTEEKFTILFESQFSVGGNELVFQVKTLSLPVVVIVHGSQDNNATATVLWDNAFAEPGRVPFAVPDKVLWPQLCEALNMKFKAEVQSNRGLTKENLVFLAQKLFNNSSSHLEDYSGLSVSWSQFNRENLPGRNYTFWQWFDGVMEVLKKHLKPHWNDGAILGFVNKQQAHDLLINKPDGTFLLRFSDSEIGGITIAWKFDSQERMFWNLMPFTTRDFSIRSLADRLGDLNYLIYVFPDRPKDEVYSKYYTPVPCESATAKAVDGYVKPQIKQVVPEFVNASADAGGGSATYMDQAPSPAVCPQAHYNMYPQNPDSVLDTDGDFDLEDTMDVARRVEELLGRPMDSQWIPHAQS
# T4 sequence (Q96SW2 whole entry, looked up): as the sequence (Q96SW2 whole entry partner) above
# [13] = biological target: T1, Protein cereblon/Signal transducer and activator of transcription 3 (Homo sapiens); assay: PROTAC activity at CRBN/STAT3 in human Pfeiffer cells assessed as induction of STAT3 degradation at 5 uM measured after 3 hrs; format: cell-based
# [14] = biological target: T5, Protein cereblon/Signal transducer and activator of transcription 1-alpha/beta (Homo sapiens) (UniProt P42224+Q96SW2); assay: PROTAC activity at CRBN/STAT1 in human DB cells assessed as induction of STAT1 degradation at 5 to 10 uM measured after 24 hrs; format: cell-based; details: dose 5-10 µM
# [15] = biological target: T6, Protein cereblon/Signal transducer and activator of transcription 2 (Homo sapiens) (UniProt Q96SW2+P52630); assay: PROTAC activity at CRBN/STAT2 in human KARPAS-299 cells assessed as induction of STAT2 degradation at 5 to 10 uM measured after 24 hrs; format: cell-based; details: dose 5-10 µM
# T6 sequence (P52630 whole entry, looked up): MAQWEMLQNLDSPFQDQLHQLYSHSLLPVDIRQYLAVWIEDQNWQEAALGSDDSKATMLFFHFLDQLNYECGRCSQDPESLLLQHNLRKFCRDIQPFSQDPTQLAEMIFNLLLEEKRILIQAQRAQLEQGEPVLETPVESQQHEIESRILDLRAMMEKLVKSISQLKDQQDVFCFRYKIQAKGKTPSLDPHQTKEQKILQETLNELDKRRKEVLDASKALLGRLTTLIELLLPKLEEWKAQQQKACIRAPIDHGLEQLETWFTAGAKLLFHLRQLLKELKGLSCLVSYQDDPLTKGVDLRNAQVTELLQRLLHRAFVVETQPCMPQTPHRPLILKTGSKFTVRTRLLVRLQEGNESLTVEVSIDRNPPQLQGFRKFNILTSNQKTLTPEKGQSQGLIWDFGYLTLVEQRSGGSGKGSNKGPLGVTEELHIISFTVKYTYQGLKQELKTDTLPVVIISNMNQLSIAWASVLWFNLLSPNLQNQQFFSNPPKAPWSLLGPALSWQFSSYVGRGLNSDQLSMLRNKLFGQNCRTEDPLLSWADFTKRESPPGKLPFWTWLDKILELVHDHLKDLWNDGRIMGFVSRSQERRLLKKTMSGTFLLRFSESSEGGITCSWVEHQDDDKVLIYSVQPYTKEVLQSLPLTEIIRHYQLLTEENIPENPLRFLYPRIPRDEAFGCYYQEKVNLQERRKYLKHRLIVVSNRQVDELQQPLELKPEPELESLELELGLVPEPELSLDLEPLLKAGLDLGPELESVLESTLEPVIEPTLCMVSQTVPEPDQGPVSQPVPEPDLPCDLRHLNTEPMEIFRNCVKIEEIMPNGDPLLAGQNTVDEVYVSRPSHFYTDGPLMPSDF
# T6 sequence (Q96SW2 whole entry, looked up): as the sequence (Q96SW2 whole entry partner) above
# [16] = biological target: T5, Protein cereblon/Signal transducer and activator of transcription 1-alpha/beta (Homo sapiens); assay: PROTAC activity at CRBN/STAT1 in human KARPAS-299 cells assessed as induction of STAT1 degradation at 5 to 10 uM measured after 24 hrs; format: cell-based; details: dose 5-10 µM
# [17] = test system: DB; assay: Downregulation of NOP53 expression in human DB at 5 to 10 uM measured after 24 hrs; format: functional, cell-based; details: dose 5-10 µM
# [18] = biological target: T1, Protein cereblon/Signal transducer and activator of transcription 3 (Homo sapiens); assay: PROTAC activity at CRBN/STAT3 in human KARPAS-299 cells assessed as induction of STAT3 degradation at 5 uM measured after 3 hrs; format: cell-based
# [19] = biological target: T1, Protein cereblon/Signal transducer and activator of transcription 3 (Homo sapiens); assay: PROTAC activity at CRBN/STAT3 in human DB cells assessed as induction of STAT3 degradation at 5 uM measured after 3 hrs; format: cell-based
# [20] = biological target: T1, Protein cereblon/Signal transducer and activator of transcription 3 (Homo sapiens); assay: PROTAC activity at CRBN/STAT3 in human SU-DHL-4 cells assessed as induction of STAT3 degradation at 5 uM measured after 3 hrs; format: cell-based
# [21] = test system: Pfeiffer; assay: Cytotoxicity against human Pfeiffer cells harbouring STAT3 assessed as reduction in cell viability at 2 uM measured after 3 days by CCK- method; format: functional, cell-based; details: time 3.0 day
# [22] = biological target: T3, Protein cereblon/Signal transducer and activator of transcription 5A (Homo sapiens); assay: PROTAC activity at CRBN/STAT5A in human DB cells assessed as induction of STAT5A degradation at 5 to 10 uM measured after 24 hrs; format: cell-based; details: dose 5-10 µM
# [23] = biological target: T1, Protein cereblon/Signal transducer and activator of transcription 3 (Homo sapiens); assay: PROTAC activity at CRBN/STAT3 in human KARPAS-299 cells assessed as fold change in STAT3 degradation at 5 uM measured after 24 hrs; format: cell-based
# [24] = test system: DB; assay: Downregulation of PCLAF expression in human DB at 5 to 10 uM measured after 24 hrs; format: functional, cell-based; details: dose 5-10 µM
# [25] = test system: SUD4; assay: Downregulation of PCLAF expression in human SU-DHL-4 at 5 to 10 uM measured after 24 hrs; format: functional, cell-based; details: dose 5-10 µM
# [26] = test system: Pfeiffer; assay: Downregulation of NOP53 expression in human Pfeiffer at 5 to 10 uM measured after 24 hrs; format: functional, cell-based; details: dose 5-10 µM
# [27] = test system: KARPAS-299; assay: Downregulation of NOP53 expression in human KARPAS-299 at 5 to 10 uM measured after 24 hrs; format: functional, cell-based; details: dose 5-10 µM
# [28] = test system: Mus musculus; assay: In vivo PROTAC activity at CRBN/STAT1 in human Pfeiffer cells xenografted in CB-17/SCID mouse model bearing last stage of TPPRC assessed as upregulation of STAT1 by measuring fold change; format: functional
# [29] = biological target: T1, Protein cereblon/Signal transducer and activator of transcription 3 (Homo sapiens); assay: PROTAC activity at CRBN/STAT3 in human Pfeiffer cells assessed as fold change in STAT3 degradation at 5 uM measured after 24 hrs; format: cell-based
# [30] = test system: Mus musculus; assay: In vivo PROTAC activity at CRBN/STAT1 in human Pfeiffer cells xenografted in CB-17/SCID mouse model bearing middle stage of TPPRC assessed as upregulation of STAT1 by measuring fold change; format: functional
# [31] = biological target: T1, Protein cereblon/Signal transducer and activator of transcription 3 (Homo sapiens); assay: PROTAC activity at CRBN/STAT3 in human KARPAS-299 cells assessed as induction of STAT3 degradation at 5 to 10 uM measured after 24 hrs; format: cell-based; details: dose 5-10 µM
# [32] = test system: MOLM-16; assay: Downregulation of PCLAF expression in human MOLM16 at 5 to 10 uM measured after 24 hrs; format: functional, cell-based; details: dose 5-10 µM
# [33] = biological target: T1, Protein cereblon/Signal transducer and activator of transcription 3 (Homo sapiens); assay: PROTAC activity at CRBN/STAT3 in human DB cells assessed as fold change in STAT3 degradation at 5 uM measured after 24 hrs; format: cell-based
# [34] = test system: SUD4; assay: Downregulation of NOP53 expression in human SU-DHL-4 at 5 to 10 uM measured after 24 hrs; format: functional, cell-based; details: dose 5-10 µM
# [35] = biological target: T1, Protein cereblon/Signal transducer and activator of transcription 3 (Homo sapiens); assay: PROTAC activity at CRBN/STAT3 in human SUPM2 cells assessed as fold change in STAT3 degradation at 5 uM measured after 24 hrs; format: cell-based
# [36] = test system: Pfeiffer; assay: Downregulation of STAT3 expression in patient derived STAT3 high expressing human Pfeiffer cell organoids at 2 uM by Western blot analysis; format: functional, cell-based
# [37] = test system: Pfeiffer; assay: Downregulation of PCLAF expression in human Pfeiffer at 5 to 10 uM measured after 24 hrs; format: functional, cell-based; details: dose 5-10 µM
# [38] = biological target: T1, Protein cereblon/Signal transducer and activator of transcription 3 (Homo sapiens); assay: PROTAC activity at CRBN/STAT3 in human SU-DHL-4 cells assessed as fold change in STAT3 degradation at 5 uM measured after 24 hrs; format: cell-based
# [39] = biological target: T4, Protein cereblon/Signal transducer and activator of transcription 5B (Homo sapiens); assay: PROTAC activity at CRBN/STAT5B in human DB cells assessed as induction of STAT5B degradation at 5 to 10 uM measured after 24 hrs; format: cell-based; details: dose 5-10 µM
# [40] = biological target: T2, Protein cereblon/Signal transducer and activator of transcription 6 (Homo sapiens); assay: PROTAC activity at CRBN/STAT6 in human KARPAS-299 cells assessed as induction of STAT6 degradation at 5 to 10 uM measured after 24 hrs; format: cell-based; details: dose 5-10 µM
# [41] = Toxicity in CB-17/SCID mouse bearing late stage of TPPRC assessed as effect on body weight at 25 to 50 mg/kg, iv measured after 21 days; format: organism-based; details: in vivo, 504 h, dose 25-50 mg/kg, time 21 day
# [42] = test system: SUP-M2; assay: Downregulation of PCLAF expression in human SUPM2 at 5 to 10 uM measured after 24 hrs; format: functional, cell-based; details: dose 5-10 µM
# [43] = biological target: T1, Protein cereblon/Signal transducer and activator of transcription 3 (Homo sapiens); assay: PROTAC activity at CRBN/STAT3 in human MOLM16 cells assessed as fold change in STAT3 degradation at 5 uM measured after 24 hrs; format: cell-based
# [44] = test system: KARPAS-299; assay: Downregulation of PCLAF expression in human KARPAS-299 at 5 to 10 uM measured after 24 hrs; format: functional, cell-based; details: dose 5-10 µM
# [45] = test system: Pfeiffer; assay: Cytotoxicity against human Pfeiffer cells harbouring STAT1 assessed as reduction in cell viability measured after 3 days by CCK- method; format: functional, cell-based; details: time 3.0 day
# [46] = biological target: T6, Protein cereblon/Signal transducer and activator of transcription 2 (Homo sapiens); assay: PROTAC activity at CRBN/STAT2 in human DB cells assessed as induction of STAT2 degradation at 5 to 10 uM measured after 24 hrs; format: cell-based; details: dose 5-10 µM
smiles,measurement,setting,value
NC(=O)CC[C@H](NC(=O)[C@@H]1CC[C@@H]2CCN(C(=O)CCCCCC#Cc3cccc4c3CN(C3CCC(=O)NC3=O)C4=O)C[C@H](NC(=O)c3cc4cc(C(F)(F)P(=O)(O)O)ccc4[nH]3)C(=O)N21)C(=O)NC(c1ccccc1)c1ccccc1 (stereo partly specified),Activity,[1],Active
same,Activity,[2],Dose-Dependent Effect
same,Activity,[3],Active
same,Activity,[4],Active
same,Activity,[5],Active
same,Activity,[6],Active
same,Activity,[7],inactive
same,Activity,[8],inactive
same,Activity,[9],Active
same,Activity,[10],Active
same,Activity,[11],Active
same,Activity,[12],inactive
same,Activity,[13],Active
same,Activity,[14],inactive
same,Activity,[15],inactive
same,Activity,[16],inactive
same,Activity,[17],inactive
same,Activity,[18],Active
same,Activity,[19],Active
same,Activity,[20],Active
same,Activity,[21],Active
same,Activity,[22],inactive
same,fold change (FC),[23],0.66
same,Activity,[24],inactive
same,Activity,[25],inactive
same,Activity,[26],inactive
same,Activity,[27],Active
same,fold change (FC),[28],>3.5
same,fold change (FC),[29],0.66
same,fold change (FC),[30],>3.5
same,Activity,[31],Active
same,Activity,[32],Active
same,fold change (FC),[33],0.66
same,Activity,[34],inactive
same,fold change (FC),[35],0.66
same,Activity,[36],Active
same,Activity,[37],inactive
same,fold change (FC),[38],0.66
same,Activity,[39],inactive
same,Activity,[40],inactive
same,Activity,[41],Non-Toxic
same,Activity,[42],Active
same,fold change (FC),[43],0.66
same,Activity,[44],Active
same,Activity,[45],Active
same,Activity,[46],inactive
